These results are taken from patent US20230150970A1, “AMINOPYRIMIDINE DERIVATIVES AND THEIR USE AS ARYL HYDROCARBON RECEPTOR MODULATORS” (DONG-A ST CO., LTD., priority 2020, published 2023).

By IC50 is commonly meant the concentration that inhibits the measured activity by half.

The data set addresses T1, AhR (Homo sapiens, UniProt P35869).
T1 sequence (P35869 11-848): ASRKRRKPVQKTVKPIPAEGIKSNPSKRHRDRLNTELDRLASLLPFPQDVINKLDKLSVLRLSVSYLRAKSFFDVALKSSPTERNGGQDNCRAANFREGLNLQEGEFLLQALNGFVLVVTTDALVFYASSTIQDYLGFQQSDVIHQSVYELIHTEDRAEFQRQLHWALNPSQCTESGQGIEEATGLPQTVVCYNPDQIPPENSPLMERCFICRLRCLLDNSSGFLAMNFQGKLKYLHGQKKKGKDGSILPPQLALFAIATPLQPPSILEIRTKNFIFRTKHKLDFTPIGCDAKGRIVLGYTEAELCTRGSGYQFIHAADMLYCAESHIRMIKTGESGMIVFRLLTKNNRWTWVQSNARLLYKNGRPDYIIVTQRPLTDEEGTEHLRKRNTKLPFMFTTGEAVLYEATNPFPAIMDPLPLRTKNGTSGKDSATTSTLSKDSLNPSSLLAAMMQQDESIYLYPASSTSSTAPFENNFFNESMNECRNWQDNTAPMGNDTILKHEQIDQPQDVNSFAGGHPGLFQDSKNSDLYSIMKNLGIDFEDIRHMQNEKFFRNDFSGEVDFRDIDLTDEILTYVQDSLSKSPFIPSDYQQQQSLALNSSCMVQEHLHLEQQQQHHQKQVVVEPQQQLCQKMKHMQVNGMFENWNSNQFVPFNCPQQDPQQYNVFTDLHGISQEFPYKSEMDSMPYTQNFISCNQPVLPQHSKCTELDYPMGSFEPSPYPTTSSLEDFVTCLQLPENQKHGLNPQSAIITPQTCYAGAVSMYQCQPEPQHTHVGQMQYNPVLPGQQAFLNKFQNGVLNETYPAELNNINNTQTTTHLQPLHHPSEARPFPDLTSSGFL
Kind of data set: In Vitro Assay 1: XRE-luciferase reporter assay, antagonism in human cell line (HepG2). (In general: Reporter assays use an easily measured gene product as a stand-in for the process of interest.)

Where [1] appears, read: Assay 1: AhR-Luc Human Antagonism (IC50, nM), unmarked values: kynurenine 200 μM, 6 hours.

The structures appear in SMILES notation. Like-named read-outs stand apart in the source and are kept apart here. Some results are limits rather than exact numbers.

`OC[C@H]1CCN(c2cc(-c3ccc(Cl)cc3)nc(-c3cccnc3)n2)C[C@@H]1O` [Example 259, (3R,4R)-1-(6-(4-chlorophenyl)-2-(pyridin-3-yl)pyrimidin-4-yl)-4-(hydroxymethyl)piperidin-3-ol] yielded an IC50 under setting [1] of under 10 nM.
In the case of `OC[C@@H]1CCN(c2cc(-c3ccc(Cl)cc3)nc(-c3cccnc3)n2)C[C@H]1O` [Example 261, (3S,4S)-1-(6-(4-chlorophenyl)-2-(pyridin-3-yl)pyrimidin-4-yl)-4-(hydroxymethyl)piperidin-3-ol], under setting [1], the IC50 is under 10 nM.
Turning to `Cc1ccncc1-c1nc(-c2ccc(C(F)(F)F)cc2)cc(N2CC[C@H](O)C2)n1` [Example 263, (S)-1-(2-(4-methylpyridin-3-yl)-6-(4-(trifluoromethyl)phenyl)pyrimidin-4-yl)pyrrolidin-3-ol], the IC50 under setting [1] was under 10 nM.
The same measure, in the same setting: then `OC[C@@H]1CCN(c2cc(-c3ccc(Cl)cc3)nc(-c3cccnc3)n2)C[C@@H]1O` [Example 264, (3R,4S)-1-(6-(4-chlorophenyl)-2-(pyridin-3-yl)pyrimidin-4-yl)-4-(hydroxymethyl)piperidin-3-ol], with 10 to 100 nM; and `OC[C@@H]1CCN(c2cc(-c3ccc(C(F)(F)F)cc3)nc(-c3cccnc3)n2)C[C@@H]1O` [Example 265, (3R,4S)-4-(hydroxymethyl)-1-(2-(pyridin-3-yl)-6-(4-(trifluoromethyl)phenyl)pyrimidin-4-yl)piperidin-3-ol], with under 10 nM.
Same read-out and setting: the same measure for `OC[C@@H]1CN(c2cc(-c3ccc(Cl)cc3)nc(-c3cccnc3)n2)C[C@H]1O` [Example 266, (3S,4S)-1-(6-(4-chlorophenyl)-2-(pyridin-3-yl)pyrimidin-4-yl)-4-(hydroxymethyl)pyrrolidin-3-ol]: under 10 nM; for `OC[C@@H]1CN(c2cc(-c3ccc(C(F)(F)F)cc3)nc(-c3cccnc3)n2)C[C@H]1O` [Example 267, (3S,4S)-4-(hydroxymethyl)-1-(2-(pyridin-3-yl)-6-(4-(trifluoromethyl)phenyl)pyrimidin-4-yl)pyrrolidin-3-ol]: under 10 nM; for `Cc1ncccc1-c1nc(-c2ccc(C(F)(F)F)cc2)cc(N2CC[C@H](O)C2)n1` [Example 269, (S)-1-(2-(2-methylpyridin-3-yl)-6-(4-(trifluoromethyl)phenyl)pyrimidin-4-yl)pyrrolidin-3-ol]: under 10 nM.
As to `Oc1ncccc1-c1nc(-c2ccc(C(F)(F)F)cc2)cc(N2CC[C@H](O)C2)n1` [Example 270, (S)-3-(4-(3-hydroxypyrrolidin-1-yl)-6-(4-(trifluoromethyl)phenyl)pyrimidin-2-yl)pyridin-2-ol], under setting [1], the IC50 was under 10 nM.
`OCC1CCN(c2cc(-c3ccc(Cl)cc3O)nc(-c3cccnc3)n2)CC1` [Example 271, 5-chloro-2-(6-(4-(hydroxymethyl)piperidin-1-yl)-2-(pyridin-3-yl)pyrimidin-4-yl)phenol] had an IC50 under setting [1] of under 10 nM.
Molecule `CC(C)(C)OC(=O)N1CCN(c2cc(-c3ccc(Cl)cc3)nc(-c3cccnc3)n2)C[C@H]1CO` [Example 272, tert-butyl (S)-4-(6-(4-chlorophenyl)-2-(pyridin-3-yl)pyrimidin-4-yl)-2-(hydroxymethyl)piperazine-1-carboxylate] yielded an IC50 under setting [1] of 10 to 100 nM.
With `CS(=O)(=O)Nc1ccc(-c2cc(N3CCC(CO)CC3)nc(-c3cccnc3)n2)cc1` [Example 274, N-(4-(6-(4-(hydroxymethyl)piperidin-1-yl)-2-(pyridin-3-yl)pyrimidin-4-yl)phenyl)methanesulfonamide], the IC50 under setting [1] was over 1000 nM.
Same read-out and setting: the same measure for `CN1CCN(c2ccc(-c3cc(N4CCC(CO)CC4)nc(-c4cccnc4)n3)cc2)CC1` [Example 275, (1-(6-(4-(4-methylpiperazin-1-yl)phenyl)-2-(pyridin-3-yl)pyrimidin-4-yl)piperidin-4-yl)methanol]: 10 to 100 nM; for `OCC1CCN(c2cc(-c3c(F)cc(F)cc3F)nc(-c3cccnc3)n2)CC1` [Example 277, (1-(2-(pyridin-3-yl)-6-(2,4,6-trifluorophenyl)pyrimidin-4-yl)piperidin-4-yl)methanol]: 100 to 1000 nM.
On to `OC[C@@H]1CN(c2cc(-c3ccc(C(F)(F)F)cc3)nc(-c3cccnc3)n2)CCO1` [Example 279, (S)-(4-(2-(pyridin-3-yl)-6-(4-(trifluoromethyl)phenyl)pyrimidin-4-yl)morpholin-2-yl)methanol], for which the IC50 under setting [1] was under 10 nM.
In turn, `OC[C@@H]1CCN(c2cc(-c3ccc(C(F)(F)F)cc3)nc(-c3cccnc3)n2)C[C@H]1F` [Example 281, ((3S,4S)-3-fluoro-1-(2-(pyridin-3-yl)-6-(4-(trifluoromethyl)phenyl)pyrimidin-4-yl)piperidin-4-yl)methanol] had an IC50 under setting [1] of under 10 nM.
Same read-out and setting: the same measure for `O[C@H]1CN(c2cc(-c3ccc(Cl)cc3)nc(-c3cccnc3)n2)C[C@@H]1O` [Example 284, (3S,4S)-1-(6-(4-chlorophenyl)-2-(pyridin-3-yl)pyrimidin-4-yl)pyrrolidine-3,4-diol]: under 10 nM.
The same measure, in the same setting: the same measure for `OCC1CCN(c2cc(-c3ccc(N4CCOCC4)cc3)nc(-c3cccnc3O)n2)CC1` [Example 285, 3-(4-(4-(hydroxymethyl)piperidin-1-yl)-6-(4-morpholinophenyl)pyrimidin-2-yl)pyridin-2-ol]: 10 to 100 nM.
Under setting [1], `Cn1cc(-c2nc(-c3ccc(N4CCOCC4)cc3)cc(N3CCC(CO)CC3)n2)cn1` [Example 286, (1-(2-(1-methyl-1H-pyrazol-4-yl)-6-(4-morpholinophenyl)pyrimidin-4-yl)piperidin-4-yl)methanol] gave an IC50 of 100 to 1000 nM.
Regarding `Cn1cc(-c2nc(-c3ccc(N4CCOCC4)c(F)c3)cc(N3CCC(CO)CC3)n2)cn1` [Example 287, (1-(6-(3-fluoro-4-morpholinophenyl)-2-(1-methyl-1H-pyrazol-4-yl)pyrimidin-4-yl)piperidin-4-yl)methanol], the 50% inhibitory concentration (IC50) under setting [1] fell in the range of 100 to 1000 nM.
For `OCC1CCN(c2cc(-c3ccc4[nH]ncc4c3)nc(-c3cccnc3)n2)CC1` [Example 288, (1-(6-(1H-indazol-5-yl)-2-(pyridin-3-yl)pyrimidin-4-yl)piperidin-4-yl)methanol], the IC50 under setting [1] lay in the range of 100 to 1000 nM.
For `O=C1Cc2cc(-c3cc(N4CCC(CO)CC4)nc(-c4cccnc4)n3)ccc2N1` [Example 290, 5-(6-(4-(hydroxymethyl)piperidin-1-yl)-2-(pyridin-3-yl)pyrimidin-4-yl)indolin-2-one], the IC50 under setting [1] is over 1000 nM.
Same read-out and setting: the same measure for `O=C1COCCN1c1ccc(-c2cc(N3CCC(CO)CC3)nc(-c3cccnc3)n2)cc1` [Example 291, 4-(4-(6-(4-(hydroxymethyl)piperidin-1-yl)-2-(pyridin-3-yl)pyrimidin-4-yl)phenyl)morpholin-3-one]: over 1000 nM.
The same measure, in the same setting: then `O=C(O)c1ccc(-c2cc(N3CCC(CO)CC3)nc(-c3cccnc3)n2)cc1` [Example 292, 4-(6-(4-(hydroxymethyl)piperidin-1-yl)-2-(pyridin-3-yl)pyrimidin-4-yl)benzoic acid], with over 1000 nM.
For the molecule `Cn1ccc(-c2cc(N3CCC(CO)CC3)nc(-c3cccnc3)n2)n1` [Example 293, 4 (1-(6-(1-methyl-1H-pyrazol-3-yl)-2-(pyridin-3-yl)pyrimidin-4-yl)piperidin-4-yl)methanol], the IC50 (read-out: Assay 1: AhR-Luc Human Antagonism (IC50), unmarked values: kynurenine 200 μM, 6 hours) is over 1000 nM.
As for `OCC1CCN(c2cc(-c3cncc(F)c3)nc(-c3cccnc3)n2)CC1` [Example 294, (1-(6-(5-fluoropyridin-3-yl)-2-(pyridin-3-yl)pyrimidin-4-yl)piperidin-4-yl)methanol], the IC50 under setting [1] lay within 100 to 1000 nM.
Under setting [1], `Oc1ncccc1-c1nc(-c2ccc(N3CCOCC3)nc2)cc(N2CC[C@H](O)C2)n1` [Example 295, (S)-3-(4-(3-hydroxypyrrolidin-1-yl)-6-(6-morpholinopyridin-3-yl)pyrimidin-2-yl)pyridin-2-ol] yielded a half-maximal inhibitory concentration (IC50) of over 1000 nM.
In turn, `O=[N+]([O-])c1cc(-c2cc(N3CC[C@H](O)C3)nc(-c3cccnc3)n2)ccc1F` [Example 296, (S)-1-(6-(4-fluoro-3-nitrophenyl)-2-(pyridin-3-yl)pyrimidin-4-yl)pyrrolidin-3-ol] returned an IC50 under setting [1] of over 1000 nM.
On the same count and under the same terms, the same measure for `O=[N+]([O-])c1cc(-c2cc(N3CC[C@H](O)C3)nc(-c3cccnc3)n2)ccc1N1CCOCC1` [Example 297, (S)-1-(6-(4-morpholino-3-nitrophenyl)-2-(pyridin-3-yl)pyrimidin-4-yl)pyrrolidin-3-ol]: over 1000 nM; for `Nc1cc(-c2cc(N3CC[C@H](O)C3)nc(-c3cccnc3)n2)ccc1N1CCOCC1` [Example 298, (S)-1-(6-(3-amino-4-morpholinophenyl)-2-(pyridin-3-yl)pyrimidin-4-yl)pyrrolidin-3-ol]: 10 to 100 nM; for `CC(=O)Nc1cc(-c2cc(N3CC[C@H](O)C3)nc(-c3cccnc3)n2)ccc1N1CCOCC1` [Example 299, (S)—N-(5-(6-(3-hydroxypyrrolidin-1-yl)-2-(pyridin-3-yl)pyrimidin-4-yl)-2-morpholinophenyl)acetamide]: over 1000 nM.
